Source: patent publication US7498353B2, “Heterocyclic anti-viral compounds comprising metabolizable moieties and their uses” (priority 2005, dated 2009)
Where two headings read alike, the source gives them in different places.

Test system: HCV NS5A protein in 9-13 replicon cells
Assay: Quantitative Western blot replicon assay (HEPC_REPLICON-ICWESTERN)
Format: cell-based, Hepatitis C virus (HCV)
Details: Hepatitis C virus, read-out: HEPC_REPLICON-ICWESTERN Result Value (IC50)
Description: Alternatively, the inhibitory activity of the metabolically active agents of the prodrugs can be confirmed using a quantitative Western immunoblot assay utilizing antibodies specific for HCV non-structural proteins, such as NS3, NS4A NS5A and NS5B. In one embodiment of this assay, replicon cells are treated with varying concentrations of test prodrug to determine the concentration of the metabolically active agent of the test prodrug that yields a 50% reduction in the amount of a non-structural protein produced as compared to a control sample (IC50). A single non-structural protein may be quantified or multiple non-structural proteins may be quantified. Antibodies suitable for carrying out such immunoblot assays are available commercially (e.g., from BIODESIGN International, Saco, Me.).
Certain prodrugs of the invention, which may inhibit HCV translation or replication prior to metablism and/or are metabolized into active agents, were also tested for their ability to inhibit HCV replication using a quantitative Western blot analysis with antibodies specific for the HCV NS5A or other non-structural proteins. Actively dividing 9-13 replicon cells were seeded into 6-well plates at a density of 1×10^5 cells/well in a volume of 2 ml/well and incubated at 37° C. and 5% CO2 for 24 hours. Various concentrations of test prodrugs (in a volume of 10 ul) were added to the wells and the cells incubated for another 48 hours. Protein samples were prepared from the cultured cells, resolved on a SDS-PAGE gel and transferred to a nitrocellulose membrane. The membrane was blocked with 5% non-fat milk in PBS for 1 hour at room temperature. Primary antibody (anti NS5A antibody; BIODESIGN International, Saco, Me.) incubation was performed for 1 hour at room temperature, after which the membrane was washed 3 times (for 15 min per time) with PBST (PBS plus 0.1% Tween 20). Horseradish peroxidase conjugated secondary antibody incubation was performed for 1 hour at room temperature and the membrane was washed 3 times (for 15 min per time) with PBST. The membrane was then soaked in substrate solution (Pierce) and exposed to a film or quantified using an imager. In this assay, the amount of test prodrug that is believed to be transformed into an active agent under the given conditions that yielded a 50% reduction in the amount of NS5A protein translated as compared to a control sample (IC50) was determined.

[1] = 9-13 replicon cells, 50% reduction in NS5A protein

Row | Compound | IC50 [1] [µM] | IC50 [µM]
1 | CC(C)[C@@H](CN(C(=O)C(Cl)Cl)c1cccc(-c2cc(-c3c(Cl)cccc3Cl)no2)c1)NC(=O)C1CC(O)CN1 (stereo partly drawn) [Cpd. No. 42, N-((S)-1-(2,2-Dichloro-N-(3-(3-(2,6-dichlorophenyl)isoxazol-5-yl)phenyl)acetamido)-3-methylbutan-2-yl)-4-hydroxypyrrolidine-2-carboxamide] | > 20 | –
2 | CC(C)[C@H](N)C(=O)NCCN(C(=O)C(Cl)Cl)c1cccc(-c2cc(-c3c(Cl)cccc3Cl)no2)c1 [Cpd. No. 37, (S)-2-Amino-N-(2-(2,2-dichloro-N-(3-(3-(2,6-dichlorophenyl)isoxazol-5-yl)phenyl)acetamido)ethyl)-3-methylbutanamide] | 1 to 20 | –
3 | CC(C)(C)OC(=O)N[C@H](C(=O)NCCN(C(=O)C(Cl)Cl)c1cccc(-c2cc(-c3c(Cl)cccc3Cl)no2)c1)c1ccccc1 [Cpd. No. 17, (S)-tert-Butyl 2-(2-(2,2-Dichloro-N-(3-(3-(2,6-dichlorophenyl)isoxazol-5-yl)phenyl)acetamido)ethylamino)-2-oxo-1-phenylethylcarbamate] | > 20 | –
4 | CCOC(=O)CN(C(=O)C(Cl)Cl)c1ccnc(-c2cc(-c3c(Cl)cccc3Cl)no2)c1 [Cpd. No. 8, Ethyl 2-(2,2-Dichloro-N-(2-(3-(2,6-dichlorophenyl)isoxazol-5-yl)pyridin-4-yl)acetamido)acetate] | 1 to 20 | –
5 | CC(C)(C)OC(=O)N1CC(O)C[C@H]1C(=O)NCCN(C(=O)C(Cl)Cl)c1cccc(-c2cc(-c3c(Cl)cccc3Cl)no2)c1 (stereo partly drawn) [Cpd. No. 33, (2S)-tert-Butyl 2-(2-(2,2-Dichloro-N-(3-(3-(2,6-dichlorophenyl)isoxazol-5-yl)phenyl)acetamido)ethylcarbamoyl)-4-hydroxypyrrolidine-1-carboxylate] | > 20 | –
6 | CC(C)[C@H](N)CN(C(=O)C(Cl)Cl)c1cccc(-c2cc(-c3c(Cl)cccc3Cl)no2)c1 [Cpd. No. 39, (S)-N-(2-Amino-3-methylbutyl)-2,2-dichloro-N-(3-(3-(2,6-dichlorophenyl)isoxazol-5-yl)phenyl)acetamide] | 1 to 20 | –
7 | CC(C)[C@@H](CN(C(=O)C(Cl)Cl)c1cccc(-c2cc(-c3c(Cl)cccc3Cl)no2)c1)NC(=O)[C@H](N)c1ccccc1 [Cpd. No. 41, N-((S)-2-((R)-2-Amino-2-phenylacetamido)-3-methylbutyl)-2,2-dichloro-N-(3-(3-(2,6-dichlorophenyl)isoxazol-5-yl)phenyl)acetamide] | > 20 | –
8 | CNCC(=O)NCCN(C(=O)C(Cl)Cl)c1cccc(-c2cc(-c3c(Cl)cccc3Cl)no2)c1 [Cpd. No. 36, 2,2-Dichloro-N-(3-(3-(2,6-dichlorophenyl)isoxazol-5-yl)phenyl)-N-(2-(2-(methylamino)acetamido)ethyl)acetamide] | 1 to 20 | –
9 | CC(C)[C@@H](CN(C(=O)C(Cl)Cl)c1cccc(-c2cc(-c3c(Cl)cccc3Cl)no2)c1)NC(=O)[C@@H](NC(=O)OC(C)(C)C)c1ccccc1 [Cpd. No. 22, tert-Butyl (S)-2-((S)-1-(2,2-Dichloro-N-(3-(3-(2,6-dichlorophenyl)isoxazol-5-yl)phenyl)acetamido)-3-methylbutan-2-ylamino)-2-oxo-1-phenylethylcarbamate] | 1 to 20 | –
10 | O=C(NCCN(C(=O)C(Cl)Cl)c1cccc(-c2cc(-c3c(Cl)cccc3Cl)no2)c1)[C@@H]1CC(O)CN1 (stereo partly drawn) [Cpd. No. 34, (2S)-N-(2-(2,2-Dichloro-N-(3-(3-(2,6-dichlorophenyl)isoxazol-5-yl)phenyl)acetamido)ethyl)-4-hydroxypyrrolidine-2-carboxamide] | > 20 | –
11 | N#CCCN(C(=O)C(Cl)Cl)c1cccc(-c2cc(-c3c(Cl)cccc3Cl)no2)c1 [Cpd. No. 13, 2,2-Dichloro-N-(2-cyanoethyl)-N-(3-(3-(2,6-dichlorophenyl)isoxazol-5-yl)phenyl)acetamide] | > 20 | –
12 | N[C@@H](CCC(=O)O)C(=O)NCCN(C(=O)C(Cl)Cl)c1cccc(-c2cc(-c3c(Cl)cccc3Cl)no2)c1 [Cpd. No. 35, (S)-4-Amino-5-(2-(2,2-dichloro-N-(3-(3-(2,6-dichlorophenyl)isoxazol-5-yl)phenyl)acetamido)ethylamino)-5-oxopentanoic Acid] | > 20 | –
13 | NC(CCC(=O)O)C(=O)CCN(C(=O)C(Cl)Cl)c1ccnc(-c2cc(-c3c(Cl)cccc3Cl)no2)c1 (stereo not drawn) [Cpd. No. 4, 4-Amino-7-(2,2-dichloro-N-(2-(3-(2,6-dichlorophenyl)isoxazol-5-yl)pyridin-4-yl)acetamido)-5-oxoheptanoic Acid] | < 1 | –
14 | CC(C)[C@@H](CN(C(=O)C(Cl)Cl)c1cccc(-c2cc(-c3c(Cl)cccc3Cl)no2)c1)NC(=O)C1CC(O)CN1C(=O)OC(C)(C)C (stereo partly drawn) [Cpd. No. 24, tert-Butyl 2-((S)-1-(2,2-Dichloro-N-(3-(3-(2,6-dichlorophenyl)isoxazol-5-yl)phenyl)acetamido)-3-methylbutan-2-ylcarbamoyl)-4-hydroxypyrrolidine-1-carboxylate] | 1 to 20 | –
15 | CC(C)(C)OC(=O)CC[C@H](NC(=O)OC(C)(C)C)C(=O)NCCN(C(=O)C(Cl)Cl)c1cccc(-c2cc(-c3c(Cl)cccc3Cl)no2)c1 [Cpd. No. 32, (S)-tert-Butyl 4-(tert-Butoxycarbonylamino)-5-(2-(2,2-dichloro-N-(3-(3-(2,6-dichlorophenyl)isoxazol-5-yl)phenyl)acetamido)ethylamino)-5-oxopentanoate] | > 20 | –
16 | CNCC(=O)N[C@H](CN(C(=O)C(Cl)Cl)c1cccc(-c2cc(-c3c(Cl)cccc3Cl)no2)c1)C(C)C [Cpd. No. 43, (S)-2,2-Dichloro-N-(3-(3-(2,6-dichlorophenyl)isoxazol-5-yl)phenyl)-N-(3-methyl-2-(2-(methylamino)acetamido)butyl)acetamide] | 1 to 20 | –
17 | COC(=O)CCN(C(=O)C(Cl)Cl)c1cccc(-c2cc(-c3c(Cl)cccc3Cl)no2)c1 [Cpd. No. 12, Methyl 3-(2,2-Dichloro-N-(3-(3-(2,6-dichlorophenyl)isoxazol-5-yl)phenyl)acetamido)propanoate] | > 20 | –
18 | CC(C)[C@@H](CN(C(=O)C(Cl)Cl)c1cccc(-c2cc(-c3c(Cl)cccc3Cl)no2)c1)NC(=O)[C@H](NC(=O)OC(C)(C)C)c1ccccc1 [Cpd. No. 23, tert-Butyl (R)-2-((S)-1-(2,2-Dichloro-N-(3-(3-(2,6-dichlorophenyl)isoxazol-5-yl)phenyl)acetamido)-3-methylbutan-2-ylamino)-2-oxo-1-phenylethylcarbamate] | 1 to 20 | –
19 | CCC(C)OCN(C(=O)C(Cl)Cl)c1ccnc(-c2cc(-c3c(Cl)cccc3Cl)no2)c1 (stereo not drawn) [Cpd. No. 10, N-(sec-Butoxymethyl)-2,2-dichloro-N-(2-(3-(2,6-dichlorophenyl)isoxazol-5-yl)pyridin-4-yl)acetamide] | 1 to 20 | –
20 | CC(C)(C)OC(=O)NCCN(C(=O)C(Cl)Cl)c1cccc(-c2cc(-c3c(Cl)cccc3Cl)no2)c1 [Cpd. No. 14, tert-Butyl 2-(2,2-Dichloro-N-(3-(3-(2,6-dichlorophenyl)isoxazol-5-yl)phenyl)acetamido)ethylcarbamate] | > 20 | –
21 | CCOP(=O)(CCC(=O)CCN(C(=O)C(Cl)Cl)c1ccnc(-c2cc(-c3c(Cl)cccc3Cl)no2)c1)OCC [Cpd. No. 11, Diethyl 5-(2,2-Dichloro-N-(2-(3-(2,6-dichlorophenyl)isoxazol-5-yl)pyridin-4-yl)acetamido)-3-oxopentylphosphonate] | – | < 1
22 | CC(C)[C@@H](CN(C(=O)C(Cl)Cl)c1cccc(-c2cc(-c3c(Cl)cccc3Cl)no2)c1)NC(=O)[C@H](CCC(=O)OC(C)(C)C)NC(=O)OC(C)(C)C [Cpd. No. 26, (S)-tert-Butyl 4-(tert-Butoxycarbonylamino)-5-((S)-1-(2,2-dichloro-N-(3-(3-(2,6-dichlorophenyl)isoxazol-5-yl)phenyl)acetamido)-3-methylbutan-2-ylamino)-5-oxopentanoate] | 1 to 20 | –
23 | CC[C@H](C)[C@H](N)C(=O)NCCN(C(=O)C(Cl)Cl)c1cccc(-c2cc(-c3c(Cl)cccc3Cl)no2)c1 [Cpd. No. 38, (2S,3S)-2-Amino-N-(2-(2,2-dichloro-N-(3-(3-(2,6-dichlorophenyl)isoxazol-5-yl)phenyl)acetamido)ethyl)-3-methylpentanamide] | 1 to 20 | –
24 | CC(C)[C@@H](CN(C(=O)C(Cl)Cl)c1cccc(-c2cc(-c3c(Cl)cccc3Cl)no2)c1)NC(=O)OC(C)(C)C [Cpd. No. 21, (S)-tert-Butyl 1-(2,2-Dichloro-N-(3-(3-(2,6-dichlorophenyl)isoxazol-5-yl)phenyl)acetamido)-3-methylbutan-2-ylcarbamate] | 1 to 20 | –
